The record followed here is ChEMBL document CHEMBL5321237 (Eur J Med Chem, 2023).

The nature of series [1]: Metabolic stability in human liver microsomes assessed as intrinsic clearance at 3 uM measured upto 50 mins by LC-MS analysis. The class given is ADME, Microsome. For orientation: Liver microsomes are vesicles of endoplasmic reticulum, rich in cytochrome P450 enzymes.
The nature of series [2]: Kinetic aqueous solubility of compound at pH 7.4 at 500 uM incubated for 90 mins by spectrophotometry analysis. The class given is physicochemical. The note with it: buffer, read-out: Kinetic_solubility.
Series [3] has as its target T1, Macrophage colony-stimulating factor 1 receptor (Mus musculus, UniProt P09581).
T1 sequence (P09581 whole entry): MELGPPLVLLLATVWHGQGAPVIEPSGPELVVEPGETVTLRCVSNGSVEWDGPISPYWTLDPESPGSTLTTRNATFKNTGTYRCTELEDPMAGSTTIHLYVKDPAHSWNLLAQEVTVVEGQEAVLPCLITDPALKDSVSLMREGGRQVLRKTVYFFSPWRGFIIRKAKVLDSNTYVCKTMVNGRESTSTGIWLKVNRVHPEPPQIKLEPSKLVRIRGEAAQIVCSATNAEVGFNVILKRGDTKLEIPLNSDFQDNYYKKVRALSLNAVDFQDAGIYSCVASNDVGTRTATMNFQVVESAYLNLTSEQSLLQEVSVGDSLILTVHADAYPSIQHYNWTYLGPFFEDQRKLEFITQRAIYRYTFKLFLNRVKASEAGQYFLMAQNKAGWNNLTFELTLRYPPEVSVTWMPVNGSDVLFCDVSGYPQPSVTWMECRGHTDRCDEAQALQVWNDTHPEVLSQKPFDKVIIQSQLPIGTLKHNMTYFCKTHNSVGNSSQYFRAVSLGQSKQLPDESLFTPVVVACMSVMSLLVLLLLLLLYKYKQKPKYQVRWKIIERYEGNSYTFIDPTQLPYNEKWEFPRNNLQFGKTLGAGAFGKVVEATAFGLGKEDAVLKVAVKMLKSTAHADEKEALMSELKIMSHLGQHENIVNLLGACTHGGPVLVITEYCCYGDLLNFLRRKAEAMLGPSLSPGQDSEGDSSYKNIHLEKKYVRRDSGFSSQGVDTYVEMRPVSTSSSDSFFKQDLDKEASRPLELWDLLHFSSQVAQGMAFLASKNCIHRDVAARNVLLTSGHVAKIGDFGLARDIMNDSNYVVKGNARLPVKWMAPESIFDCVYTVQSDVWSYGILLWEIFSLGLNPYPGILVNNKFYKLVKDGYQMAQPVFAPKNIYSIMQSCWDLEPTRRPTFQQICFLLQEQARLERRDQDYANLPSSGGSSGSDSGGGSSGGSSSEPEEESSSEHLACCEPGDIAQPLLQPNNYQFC
Briefly: Inhibition of CSF1-induced CSF1R signalling in mouse BMDM cells assessed as reduction in ERK1/2 phosphorylation preincubated for 30 mins followed by CSF1 addition and measured after 10 mins. It counts as cell-based.

Series [4] has as its target T2, Macrophage colony-stimulating factor 1 receptor (Homo sapiens, UniProt P07333). Briefly: Inhibition of CSF1R (unknown origin) using FRET-peptide as substrate incubated in presence of ATP by FRET based Z-LYTE assay.
Series [5] deals with T3, Macrophage colony-stimulating factor 1 receptor (Mus musculus) (UniProt P09581).
T3 sequence (whole entry): T1 sequence (P09581 whole entry)
Put plainly: Inhibition of CSF1-induced CSF1R signalling in mouse BMDM cells assessed as reduction in ERK1/2 phosphorylation by measuring fold change preincubated for 30 mins followed by CSF1 addition and measured after 10 mins relative to pexidartinib. The class given is cell-based. The note with it: time 40.0 min.

A short description of series [6]: Microsomal stability mouse liver microsomes assessed as compound remaining at 5 uM incubated for 1 hr by LC-MS analysis. It counts as ADME, Microsome. The note with it: read-out: Stability.
The target of series [7] is T2, Macrophage colony-stimulating factor 1 receptor. Put plainly: Binding affinity to non-autoinhibited form of CSF1R (unknown origin) assessed as dissociation constant incubated for 1 hr by qPCR based Hill equation analysis. A general note: Quantitative PCR measures a nucleic acid by following its amplification.
A short description of series [8]: Half life in C57BLKS mouse at 1 mg/kg, iv administered as cassette dose measured for 480 mins by LC-MS analysis. The class given is ADME, organism-based. The note with it: in vivo.
Series [9] in a line: Metabolic stability in mouse liver microsomes assessed as intrinsic clearance at 3 uM measured upto 50 mins by LC-MS analysis. It counts as ADME, Microsome.
Series [10] deals with BaF3. Put plainly: Antiproliferative activity against BaF3 cells expressing human CSF1R assessed as suppression of cell proliferation incubated for 72 hrs by Cell Titer Glo assay. The class given is functional, cell-based. The note with it: Mus musculus, BaF3, 72 h. A general note: Cellular ATP, detected with luciferase, serves as a proxy for viable cell number.
Series [11] has as its target T2, Macrophage colony-stimulating factor 1 receptor. Briefly: Binding affinity to autoinhibited form of CSF1R (unknown origin) assessed as dissociation constant incubated for 1 hr by qPCR based Hill equation analysis.
Series [12] can be described thus: Inhibition of […] induced osteoclast differentiation in human Osteoclast precursor cells assessed as suppression of osteoclast formation at 100 to 1000 nM incubated for over 7 days with media replacement for every 3 days by TRITC-phalloidin/Hoechst staining based microscopic analysis relative to control. The note with it: dose 100-1000 nM, time > 7 day. It counts as functional, Osteoclast precursor cell.

The nature of series [13]: Plasma protein binding in mouse assessed as bound fraction at 5 uM incubated for 6 hrs by equilibrium dialysis based LC-MS analysis. It counts as ADME, cell-free. The note with it: read-out: PPB (converted).
Series [14] can be described thus: Observed volume of distribution at steady state in C57BLKS mouse at 1 mg/kg, iv administered as cassette dose measured for 480 mins by LC-MS analysis. The class given is ADME, organism-based. The note with it: in vivo, read-out: Vdss.
Series [15] can be described thus: Stability in mouse plasma assessed as compound remaining at 5 uM incubated for 1 hr by LC-MS analysis. The note with it: read-out: Stability. It counts as ADME, cell-free.
Series [16] concerns Osteoclast precursor cell. The note with it: Homo sapiens, dose 10.0 nM, time > 7.0 day.
A short description of series [17]: Clearance in C57BLKS mouse at 1 mg/kg, iv administered as cassette dose measured for 480 mins by LC-MS analysis. The class given is ADME, organism-based. The note with it: in vivo; for clearance: C57BLKS.
Series [18] concerns Osteoclast precursor cell. The note with it: Homo sapiens, dose 100-1000 nM, time > 7.0 day.
Series [19] can be described thus: Metabolic stability in cryopreserved pooled ICR/CD-1 mouse hepatocytes assessed as intrinsic clearance measured per 10^6 cells at 3 uM measured for 60 mins by LC-MS/MS analysis. It counts as ADME, cell-based, Hepatocyte. The note with it: read-out: CLH.
Series [20] concerns the target Epidermal growth factor receptor (Homo sapiens, UniProt P00533). Put plainly: Inhibition of EGFR (unknown origin) in presence of ATP.
Series [21] deals with T2, Macrophage colony-stimulating factor 1 receptor. Put plainly: Selectivity index, ratio of Kd for non-autoinhibited form of CSF1R (unknown origin) to Kd for autoinhibited form of CSF1R (unknown origin).

Converted amounts (≈) assume the structure as drawn. The source made the active and inactive calls. The rule behind the calls is not given here. Where only a bound is given, the exact number is not on record here.

T2 sequence (P07333 whole entry): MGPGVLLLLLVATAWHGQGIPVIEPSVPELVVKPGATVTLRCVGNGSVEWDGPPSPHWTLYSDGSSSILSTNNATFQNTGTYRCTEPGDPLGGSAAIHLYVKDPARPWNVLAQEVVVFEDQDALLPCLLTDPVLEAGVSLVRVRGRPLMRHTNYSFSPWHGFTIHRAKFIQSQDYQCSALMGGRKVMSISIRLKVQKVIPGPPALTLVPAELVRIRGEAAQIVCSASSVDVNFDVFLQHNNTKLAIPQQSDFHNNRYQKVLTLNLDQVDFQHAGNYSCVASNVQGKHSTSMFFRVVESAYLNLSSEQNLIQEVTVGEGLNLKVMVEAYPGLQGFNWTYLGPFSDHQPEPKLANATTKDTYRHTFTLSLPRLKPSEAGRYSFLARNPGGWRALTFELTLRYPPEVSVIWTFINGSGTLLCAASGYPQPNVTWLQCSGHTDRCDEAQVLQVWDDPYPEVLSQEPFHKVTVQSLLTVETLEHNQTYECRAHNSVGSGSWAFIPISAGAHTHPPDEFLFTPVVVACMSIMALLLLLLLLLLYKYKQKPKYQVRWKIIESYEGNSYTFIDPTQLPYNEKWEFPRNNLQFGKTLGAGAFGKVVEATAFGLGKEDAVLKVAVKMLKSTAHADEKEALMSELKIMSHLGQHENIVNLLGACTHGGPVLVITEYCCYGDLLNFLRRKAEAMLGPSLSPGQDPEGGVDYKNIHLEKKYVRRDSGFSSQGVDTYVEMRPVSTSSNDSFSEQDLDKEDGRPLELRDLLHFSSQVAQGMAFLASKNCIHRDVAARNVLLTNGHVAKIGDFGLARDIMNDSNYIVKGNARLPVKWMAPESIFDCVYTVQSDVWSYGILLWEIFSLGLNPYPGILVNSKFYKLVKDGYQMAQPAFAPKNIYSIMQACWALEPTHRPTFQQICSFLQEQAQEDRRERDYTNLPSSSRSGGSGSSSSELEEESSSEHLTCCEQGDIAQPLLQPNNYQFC
Sequence of Epidermal growth factor receptor (P00533 whole entry): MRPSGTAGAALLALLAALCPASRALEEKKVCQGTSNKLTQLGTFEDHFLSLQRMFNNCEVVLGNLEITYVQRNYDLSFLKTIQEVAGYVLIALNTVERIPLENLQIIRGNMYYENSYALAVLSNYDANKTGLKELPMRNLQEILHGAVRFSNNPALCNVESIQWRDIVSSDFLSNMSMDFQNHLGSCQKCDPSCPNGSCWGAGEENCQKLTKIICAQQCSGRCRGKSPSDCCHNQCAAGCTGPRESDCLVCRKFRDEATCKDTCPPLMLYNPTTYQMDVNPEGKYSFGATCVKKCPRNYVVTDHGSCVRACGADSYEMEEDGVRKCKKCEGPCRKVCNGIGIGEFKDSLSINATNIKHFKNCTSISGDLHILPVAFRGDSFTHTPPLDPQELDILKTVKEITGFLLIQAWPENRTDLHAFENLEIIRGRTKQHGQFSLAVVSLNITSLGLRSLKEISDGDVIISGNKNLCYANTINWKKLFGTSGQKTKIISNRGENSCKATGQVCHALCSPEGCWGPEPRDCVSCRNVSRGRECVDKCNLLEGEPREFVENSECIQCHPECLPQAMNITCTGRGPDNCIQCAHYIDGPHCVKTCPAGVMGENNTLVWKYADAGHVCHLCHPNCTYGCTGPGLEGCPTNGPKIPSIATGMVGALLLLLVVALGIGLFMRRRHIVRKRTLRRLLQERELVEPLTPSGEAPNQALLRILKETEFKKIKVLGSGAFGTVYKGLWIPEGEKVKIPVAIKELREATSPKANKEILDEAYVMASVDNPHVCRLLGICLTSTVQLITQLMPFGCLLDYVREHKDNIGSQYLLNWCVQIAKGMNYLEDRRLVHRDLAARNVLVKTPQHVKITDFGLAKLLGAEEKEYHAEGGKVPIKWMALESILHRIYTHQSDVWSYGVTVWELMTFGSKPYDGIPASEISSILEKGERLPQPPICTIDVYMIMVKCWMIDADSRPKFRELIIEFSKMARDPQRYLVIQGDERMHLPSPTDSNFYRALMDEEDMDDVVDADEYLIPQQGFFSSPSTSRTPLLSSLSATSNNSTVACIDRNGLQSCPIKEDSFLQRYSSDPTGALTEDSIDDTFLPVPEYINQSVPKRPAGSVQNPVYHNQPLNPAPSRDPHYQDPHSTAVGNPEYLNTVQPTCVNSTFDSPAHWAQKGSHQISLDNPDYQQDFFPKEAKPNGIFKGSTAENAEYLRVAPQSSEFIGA

Usually IC50 stands for the point on the concentration scale where inhibition reaches its midpoint. Consider `CN1CCCC(CN(C)c2ncnc3[nH]c(-c4ccc(CO)cc4)nc23)C1` (stereo unspecified), for which, in series [1], the CLint turned out to be 3.6 µL/min/mg. For the same compound, the solubility kinetic at […], 500 µM in series [2] came to 469 µM (≈ 172 µg/mL). The half-inhibitory concentration (IC50) in series [3] is > 300 nM.

As to `CN(Cc1ccccn1)c1ncnc2[nH]c(-c3ccc(CO)cc3)nc12`, the half-maximal inhibitory concentration (IC50) in series [4] stood at 7.2 nM.

With `CN(CC1CCCCC1)c1ncnc2[nH]c(-c3ccc(CO)cc3)nc12`, the fold change (FC) in series [5] is 0.9. Moreover, the results for the IC50 in series [4] and in series [3] were 1 nM and 100 nM, respectively. Besides, the CLint in series [1] is 22.3 µL/min/mg. Also, the solubility kinetic at […], 500 µM in series [2] is 0.5 µM (≈ 0.176 µg/mL).

As a reminder, the Kd is the concentration at which binding is half-saturated. The half-life is how long it takes for the measured level to halve. As for `CN(CC1CCOCC1)c1ncnc2[nH]c(-c3ccc(CO)cc3)nc12`, the remaining at 1 h, 5 µM in [6] came to 83%; in series [15], 100%. Further, the Kd was determined as 80 nM in [7] and 4.5 nM in [11]. In series [8], this compound gave a half-life of 24 min. The values for the CLint in series [9] and in series [1] were 58.7 µL/min/mg and 15.8 µL/min/mg, respectively. Also, the figures for the half-maximal inhibitory concentration (IC50) in [10] and in series [3] were 3100 nM and 83 nM, respectively. The “inhibition (INH)” value in [12] came out at 100%. The fraction unbound at 6 h, 5 µM in [13] is 0.44. Also, in series [14], the Vd came to 80 L/kg. Also, the inhibition entry in series [16] and in series [18] was “Active” each time. Further, in series [17] (iv, 1 mg/kg, 8 h), the CL was determined as 3300 mL/min/kg. The solubility kinetic at […], 500 µM in series [2] came to 55.4 µM (≈ 19.6 µg/mL). Moreover, the hepatocyte CLint at 3 µM in series [19] worked out at 148 µL/min/1e6 cells.

With `CN(Cc1ccccc1)c1ncnc2[nH]c(-c3ccc(CO)cc3)nc12`, the CLint stood at 57.8 µL/min/mg in series [9] and 14.4 µL/min/mg in series [1]. For the same compound, the fold change (FC) in series [5] was 2.9. For the same compound, the values for the IC50 in series [20] and in series [3] were 109 nM and 330 nM, respectively.

One may read the clearance as the rate of elimination divided by the concentration. A higher clearance goes with a high capacity for elimination. Take `CN(CC1CCOCC1)c1ncnc2[nH]c(-c3ccc(CCO)cc3)nc12`: the remaining at 1 h, 5 µM in [6] was determined as 97.2%; in series [15], 97.9%. Also, the Kd stood at 36 nM in [7] and 0.5 nM in [11]. This compound also had a half-life in series [8] of 24 min. The results for the CLint in series [9] and in series [1] were 30.2 µL/min/mg and 14.7 µL/min/mg, respectively. The Ratio in series [21] amounted to 72. The IC50 is 1500 nM in [10] and 106 nM in [3]. For the same compound, the “inhibition (INH)” value in series [12] is 100%. Also, the fraction unbound at 6 h, 5 µM in series [13] is 0.366. In series [5], the fold change (FC) was 0.7. For the same compound, in series [14], the Vd worked out at 9 L/kg. Also, the inhibition entry in series [16] and in series [18] was “Active” in each case. Also, in [17], the clearance was 317 mL/min/kg. In addition, in series [2], the solubility kinetic at […], 500 µM was found to be 37.5 µM (≈ 13.8 µg/mL). The hepatocyte CLint at 3 µM in [19] turned out to be 22 µL/min/1e6 cells.

`Cc1ccc(CN(C)c2ncnc3[nH]c(-c4ccc(CO)cc4)nc23)cc1`: the IC50 in series [4] was found to be 11 nM.

On to `Cc1cccc(CN(C)c2ncnc3[nH]c(-c4ccc(CO)cc4)nc23)c1`, for which the IC50 in series [4] is 1.3 nM.

Consider `CN(Cc1ccncc1)c1ncnc2[nH]c(-c3ccc(CO)cc3)nc12`, for which the IC50 in series [4] came to 2.2 nM.

As to `CN(Cc1ccccc1)c1ncnc2[nH]c(-c3ccccc3)nc12`, the IC50 in [4] was determined as 2.7 nM.

Consider `CN(Cc1cccs1)c1ncnc2[nH]c(-c3ccc(CO)cc3)nc12`, for which the concentration for half-maximal inhibition (IC50) in series [4] was determined as 2.9 nM.

For `FC(F)(F)c1ccc(CNc2ccc(Cc3c[nH]c4ncc(Cl)cc34)cn2)cn1` [PEXIDARTINIB], the IC50 in [10] is 60 nM; in [3], 100 nM. For the same compound, in [12], the “inhibition (INH)” value came to 100%. For the same compound, the Vd in series [14] worked out at 0.4 L/kg. The remaining at 1 h, 5 µM in series [15] turned out to be 100%. In addition, the inhibition result in [16] and in [18] was “Active” in each case. Besides, the clearance in series [17] was 0.833 mL/min/kg. The solubility kinetic at […], 500 µM in series [2] amounted to 20.7 µM (≈ 8.65 µg/mL).

Regarding `CN(CC1CCN(Cc2ccccc2)CC1)c1ncnc2[nH]c(-c3ccc(CO)cc3)nc12`, in series [1], the CLint is 22.1 µL/min/mg. For the same compound, in series [2], the solubility kinetic at […], 500 µM amounted to 33.5 µM (≈ 14.8 µg/mL). For the same compound, in series [3], the IC50 is > 300 nM.

With `CN(CC1CCCCO1)c1ncnc2[nH]c(-c3ccc(CO)cc3)nc12` (stereo unspecified), the CLint in series [1] amounted to 24.2 µL/min/mg. In addition, the solubility kinetic at […], 500 µM in series [2] worked out at 9.2 µM (≈ 3.25 µg/mL). The IC50 in [3] was > 300 nM.

For the compound `CN(CC1CCOC1)c1ncnc2[nH]c(-c3ccc(CO)cc3)nc12` (stereo unspecified), in [1], the CLint is 20.1 µL/min/mg. The solubility kinetic at […], 500 µM in series [2] is 131 µM (≈ 44.5 µg/mL). In series [3], the IC50 is > 300 nM.

In the case of `CN(CC1CCCO1)c1ncnc2[nH]c(-c3ccc(CO)cc3)nc12` (stereo unspecified), the CLint in [1] amounted to 33.2 µL/min/mg. In addition, the solubility kinetic at […], 500 µM in series [2] worked out at 39.7 µM (≈ 13.5 µg/mL). For the same compound, the IC50 in [3] was > 300 nM.
